Laboratory results reported in the supplement of paper PMC10307832.

Columns and labels:
Assay in all cases: relative viability (nuclei count vs DMSO), 5 days (fraction); higher = more cells survive
Quizartinib + Trametinib = compound: CC(C)(C)c1cc(NC(=O)Nc2ccc(-c3cn4c(n3)sc3cc(OCCN5CCOCC5)ccc34)cc2)no1 [Quizartinib] + CC(=O)Nc1cccc(-n2c(=O)n(C3CC3)c(=O)c3c(Nc4ccc(I)cc4F)n(C)c(=O)c(C)c32)c1 [Trametinib] (partner 0.02 µM)
Method in brief: (§1)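 Lung cancer cell lines in 1536-well plates were dosed by pin tool the day after seeding, either with one drug alone or with a fixed anchor-drug dose plus five library-drug doses (not always all listed) in √10 steps. After 5 days, cells were fixed and their nuclei stained in one step (final 0.05% Triton X-100, 1% formaldehyde, 1 ug/ml Hoechst), then counted on 4× images. Relative viability is the nuclei count in treated wells divided by that in vehicle wells. Values are medians of duplicate plates.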

[1] = compound: CC(C)(C)c1cc(NC(=O)Nc2ccc(-c3cn4c(n3)sc3cc(OCCN5CCOCC5)ccc34)cc2)no1 [Quizartinib] + CC(=O)c1c(C)c2cnc(Nc3ccc(N4CCNCC4)cn3)nc2n(C2CCCC2)c1=O [Palbociclib] (partner 0.5 µM)
Method in brief: as §1

Quizartinib + Navitoclax = compound: CC(C)(C)c1cc(NC(=O)Nc2ccc(-c3cn4c(n3)sc3cc(OCCN5CCOCC5)ccc34)cc2)no1 [Quizartinib] + CC1(C)CCC(c2ccc(Cl)cc2)=C(CN2CCN(c3ccc(C(=O)NS(=O)(=O)c4ccc(N[C@H](CCN5CCOCC5)CSc5ccccc5)c(S(=O)(=O)C(F)(F)F)c4)cc3)CC2)C1 [Navitoclax] (partner 0.5 µM)
Method in brief: as §1

Quizartinib + Linsitinib = compound: CC(C)(C)c1cc(NC(=O)Nc2ccc(-c3cn4c(n3)sc3cc(OCCN5CCOCC5)ccc34)cc2)no1 [Quizartinib] + C[C@]1(O)C[C@@H](c2nc(-c3ccc4ccc(-c5ccccc5)nc4c3)c3c(N)nccn32)C1 [Linsitinib] (partner 1 µM)
Method in brief: as §1

NCI-H2023
relative viability (Quizartinib + Trametinib; first compound 0.001 µM): 0.643 | relative viability (Quizartinib + Trametinib; first compound 0.003162 µM): 0.504 | relative viability (Quizartinib + Trametinib; first compound 0.01 µM): 0.533 | relative viability (Quizartinib + Trametinib; first compound 0.1 µM): 0.615 | relative viability ([1]; first compound 0.001 µM): 0.298 | relative viability ([1]; first compound 0.003162 µM): 0.312 | relative viability ([1]; first compound 0.01 µM): 0.467 | relative viability ([1]; first compound 0.1 µM): 0.279 | relative viability (Quizartinib + Navitoclax; first compound 0.001 µM): 0.981 | relative viability (Quizartinib + Navitoclax; first compound 0.003162 µM): 0.937 | relative viability (Quizartinib + Navitoclax; first compound 0.01 µM): 1.04 | relative viability (Quizartinib + Navitoclax; first compound 0.03162 µM): 0.744 | relative viability (Quizartinib + Navitoclax; first compound 0.1 µM): 1.04 | relative viability (Quizartinib + Linsitinib; first compound 0.001 µM): 0.556 | relative viability (Quizartinib + Linsitinib; first compound 0.003162 µM): 0.585 | relative viability (Quizartinib + Linsitinib; first compound 0.01 µM): 0.564 | relative viability (Quizartinib + Linsitinib; first compound 0.03162 µM): 0.454 | relative viability (Quizartinib + Linsitinib; first compound 0.1 µM): 0.574

NCI-H2085
relative viability (Quizartinib + Trametinib; first compound 0.001 µM): 0.62 | relative viability (Quizartinib + Trametinib; first compound 0.003162 µM): 0.528 | relative viability (Quizartinib + Trametinib; first compound 0.01 µM): 0.567 | relative viability (Quizartinib + Trametinib; first compound 0.03162 µM): 0.531 | relative viability (Quizartinib + Trametinib; first compound 0.1 µM): 0.515 | relative viability ([1]; first compound 0.001 µM): 0.407 | relative viability ([1]; first compound 0.003162 µM): 0.486 | relative viability ([1]; first compound 0.01 µM): 0.444 | relative viability ([1]; first compound 0.03162 µM): 0.453 | relative viability ([1]; first compound 0.1 µM): 0.388 | relative viability (Quizartinib + Navitoclax; first compound 0.001 µM): 1.03 | relative viability (Quizartinib + Navitoclax; first compound 0.003162 µM): 1.09 | relative viability (Quizartinib + Navitoclax; first compound 0.01 µM): 1.12 | relative viability (Quizartinib + Navitoclax; first compound 0.03162 µM): 1.15 | relative viability (Quizartinib + Navitoclax; first compound 0.1 µM): 1 | relative viability (Quizartinib + Linsitinib; first compound 0.001 µM): 0.866 | relative viability (Quizartinib + Linsitinib; first compound 0.003162 µM): 0.844 | relative viability (Quizartinib + Linsitinib; first compound 0.01 µM): 0.973 | relative viability (Quizartinib + Linsitinib; first compound 0.03162 µM): 0.907 | relative viability (Quizartinib + Linsitinib; first compound 0.1 µM): 0.948

NCI-H2087
relative viability (Quizartinib + Trametinib; first compound 0.001 µM): 0.233 | relative viability (Quizartinib + Trametinib; first compound 0.003162 µM): 0.217 | relative viability (Quizartinib + Trametinib; first compound 0.01 µM): 0.223 | relative viability (Quizartinib + Trametinib; first compound 0.03162 µM): 0.202 | relative viability (Quizartinib + Trametinib; first compound 0.1 µM): 0.19 | relative viability ([1]; first compound 0.001 µM): 0.233 | relative viability ([1]; first compound 0.003162 µM): 0.225 | relative viability ([1]; first compound 0.01 µM): 0.316 | relative viability ([1]; first compound 0.03162 µM): 0.218 | relative viability ([1]; first compound 0.1 µM): 0.229 | relative viability (Quizartinib + Navitoclax; first compound 0.001 µM): 0.971 | relative viability (Quizartinib + Navitoclax; first compound 0.003162 µM): 0.953 | relative viability (Quizartinib + Navitoclax; first compound 0.01 µM): 1.06 | relative viability (Quizartinib + Navitoclax; first compound 0.03162 µM): 1.02 | relative viability (Quizartinib + Navitoclax; first compound 0.1 µM): 0.962 | relative viability (Quizartinib + Linsitinib; first compound 0.001 µM): 0.857 | relative viability (Quizartinib + Linsitinib; first compound 0.003162 µM): 0.98 | relative viability (Quizartinib + Linsitinib; first compound 0.01 µM): 1.06 | relative viability (Quizartinib + Linsitinib; first compound 0.03162 µM): 0.935 | relative viability (Quizartinib + Linsitinib; first compound 0.1 µM): 0.705

NCI-H2126
relative viability (Quizartinib + Trametinib; first compound 0.001 µM): 0.575 | relative viability (Quizartinib + Trametinib; first compound 0.003162 µM): 0.552 | relative viability (Quizartinib + Trametinib; first compound 0.01 µM): 0.604 | relative viability (Quizartinib + Trametinib; first compound 0.03162 µM): 0.53 | relative viability (Quizartinib + Trametinib; first compound 0.1 µM): 0.492 | relative viability ([1]; first compound 0.001 µM): 0.359 | relative viability ([1]; first compound 0.003162 µM): 0.347 | relative viability ([1]; first compound 0.01 µM): 0.347 | relative viability ([1]; first compound 0.03162 µM): 0.339 | relative viability ([1]; first compound 0.1 µM): 0.346 | relative viability (Quizartinib + Navitoclax; first compound 0.001 µM): 0.813 | relative viability (Quizartinib + Navitoclax; first compound 0.003162 µM): 0.823 | relative viability (Quizartinib + Navitoclax; first compound 0.01 µM): 0.882 | relative viability (Quizartinib + Navitoclax; first compound 0.03162 µM): 0.872 | relative viability (Quizartinib + Navitoclax; first compound 0.1 µM): 0.828 | relative viability (Quizartinib + Linsitinib; first compound 0.001 µM): 0.712 | relative viability (Quizartinib + Linsitinib; first compound 0.003162 µM): 0.705 | relative viability (Quizartinib + Linsitinib; first compound 0.01 µM): 0.735 | relative viability (Quizartinib + Linsitinib; first compound 0.03162 µM): 0.767 | relative viability (Quizartinib + Linsitinib; first compound 0.1 µM): 0.835

NCI-H2228
relative viability (Quizartinib + Trametinib; first compound 0.001 µM): 0.513 | relative viability (Quizartinib + Trametinib; first compound 0.003162 µM): 0.593 | relative viability (Quizartinib + Trametinib; first compound 0.01 µM): 0.484 | relative viability (Quizartinib + Trametinib; first compound 0.03162 µM): 0.436 | relative viability (Quizartinib + Trametinib; first compound 0.1 µM): 0.511 | relative viability ([1]; first compound 0.001 µM): 0.695 | relative viability ([1]; first compound 0.003162 µM): 0.936 | relative viability ([1]; first compound 0.01 µM): 0.773 | relative viability ([1]; first compound 0.03162 µM): 1.03 | relative viability ([1]; first compound 0.1 µM): 0.76 | relative viability (Quizartinib + Navitoclax; first compound 0.001 µM): 0.859 | relative viability (Quizartinib + Navitoclax; first compound 0.003162 µM): 0.702 | relative viability (Quizartinib + Navitoclax; first compound 0.01 µM): 0.75 | relative viability (Quizartinib + Navitoclax; first compound 0.03162 µM): 1.08 | relative viability (Quizartinib + Navitoclax; first compound 0.1 µM): 0.98 | relative viability (Quizartinib + Linsitinib; first compound 0.001 µM): 0.736 | relative viability (Quizartinib + Linsitinib; first compound 0.003162 µM): 0.699 | relative viability (Quizartinib + Linsitinib; first compound 0.01 µM): 0.808 | relative viability (Quizartinib + Linsitinib; first compound 0.03162 µM): 0.534 | relative viability (Quizartinib + Linsitinib; first compound 0.1 µM): 0.624

NCI-H2347
relative viability (Quizartinib + Trametinib; first compound 0.001 µM): 0.249 | relative viability (Quizartinib + Trametinib; first compound 0.003162 µM): 0.271 | relative viability (Quizartinib + Trametinib; first compound 0.01 µM): 0.267 | relative viability (Quizartinib + Trametinib; first compound 0.03162 µM): 0.229 | relative viability (Quizartinib + Trametinib; first compound 0.1 µM): 0.287 | relative viability ([1]; first compound 0.001 µM): 0.405 | relative viability ([1]; first compound 0.003162 µM): 0.43 | relative viability ([1]; first compound 0.01 µM): 0.379 | relative viability ([1]; first compound 0.03162 µM): 0.428 | relative viability ([1]; first compound 0.1 µM): 0.434 | relative viability (Quizartinib + Navitoclax; first compound 0.001 µM): 0.675 | relative viability (Quizartinib + Navitoclax; first compound 0.003162 µM): 0.886 | relative viability (Quizartinib + Navitoclax; first compound 0.01 µM): 0.91 | relative viability (Quizartinib + Navitoclax; first compound 0.03162 µM): 0.845 | relative viability (Quizartinib + Navitoclax; first compound 0.1 µM): 0.994 | relative viability (Quizartinib + Linsitinib; first compound 0.001 µM): 0.943 | relative viability (Quizartinib + Linsitinib; first compound 0.003162 µM): 0.956 | relative viability (Quizartinib + Linsitinib; first compound 0.01 µM): 0.969 | relative viability (Quizartinib + Linsitinib; first compound 0.03162 µM): 0.908 | relative viability (Quizartinib + Linsitinib; first compound 0.1 µM): 1.07

NCI-H2405
relative viability (Quizartinib + Trametinib; first compound 0.001 µM): 0.623 | relative viability (Quizartinib + Trametinib; first compound 0.003162 µM): 0.621 | relative viability (Quizartinib + Trametinib; first compound 0.01 µM): 0.599 | relative viability (Quizartinib + Trametinib; first compound 0.03162 µM): 0.57 | relative viability (Quizartinib + Trametinib; first compound 0.1 µM): 0.691 | relative viability ([1]; first compound 0.001 µM): 0.499 | relative viability ([1]; first compound 0.003162 µM): 0.519 | relative viability ([1]; first compound 0.01 µM): 0.584 | relative viability ([1]; first compound 0.03162 µM): 0.528 | relative viability ([1]; first compound 0.1 µM): 0.556 | relative viability (Quizartinib + Navitoclax; first compound 0.001 µM): 0.912 | relative viability (Quizartinib + Navitoclax; first compound 0.003162 µM): 0.858 | relative viability (Quizartinib + Navitoclax; first compound 0.01 µM): 0.942 | relative viability (Quizartinib + Navitoclax; first compound 0.03162 µM): 0.784 | relative viability (Quizartinib + Navitoclax; first compound 0.1 µM): 1.15 | relative viability (Quizartinib + Linsitinib; first compound 0.001 µM): 0.85 | relative viability (Quizartinib + Linsitinib; first compound 0.003162 µM): 0.883 | relative viability (Quizartinib + Linsitinib; first compound 0.01 µM): 0.927 | relative viability (Quizartinib + Linsitinib; first compound 0.03162 µM): 0.909 | relative viability (Quizartinib + Linsitinib; first compound 0.1 µM): 1.09

NCI-H3122
relative viability (Quizartinib + Trametinib; first compound 0.001 µM): 0.21 | relative viability (Quizartinib + Trametinib; first compound 0.003162 µM): 0.276 | relative viability (Quizartinib + Trametinib; first compound 0.01 µM): 0.286 | relative viability (Quizartinib + Trametinib; first compound 0.03162 µM): 0.275 | relative viability (Quizartinib + Trametinib; first compound 0.1 µM): 0.219 | relative viability ([1]; first compound 0.001 µM): 0.176 | relative viability ([1]; first compound 0.003162 µM): 0.184 | relative viability ([1]; first compound 0.01 µM): 0.193 | relative viability ([1]; first compound 0.03162 µM): 0.162 | relative viability ([1]; first compound 0.1 µM): 0.235 | relative viability (Quizartinib + Navitoclax; first compound 0.001 µM): 0.93 | relative viability (Quizartinib + Navitoclax; first compound 0.003162 µM): 0.981 | relative viability (Quizartinib + Navitoclax; first compound 0.01 µM): 1.02 | relative viability (Quizartinib + Navitoclax; first compound 0.03162 µM): 1.03 | relative viability (Quizartinib + Navitoclax; first compound 0.1 µM): 1.02 | relative viability (Quizartinib + Linsitinib; first compound 0.001 µM): 1.04 | relative viability (Quizartinib + Linsitinib; first compound 0.003162 µM): 1.03 | relative viability (Quizartinib + Linsitinib; first compound 0.01 µM): 1.1 | relative viability (Quizartinib + Linsitinib; first compound 0.03162 µM): 1.05 | relative viability (Quizartinib + Linsitinib; first compound 0.1 µM): 0.964
